According to patent publication US20240116985A1, “STAPLED PEPTIDES AND METHODS THEREOF” (priority 2020, published 2024):
pIC50: −log10 of the molar value. Converted amounts (≈) assume the structure as drawn. Read-outs that look alike come from different tables or passages of the source.

What was measured:
[1] = Solubility in PBS; type: physicochemical
In short: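 Read-out is the HPLC peak area of the supernatant from ultracentrifuged PBS solution, scaled against a 50 μM peptide DMSO injection; value reported as [(PBS area)/(DMSO area)]*50 uM.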

[2] = molecular target: T1, full-length beta-Catenin (Uniprot ID P35222) (Homo sapiens, UniProt P35222); assay: Fluorescence polarization IC50 (beta-catenin / 5FAM-TCF4 10-53 competition); type: binding
T1 construct: 10 nM full-length beta-Catenin (Uniprot ID P35222)
T1 sequence (P35222 1-781): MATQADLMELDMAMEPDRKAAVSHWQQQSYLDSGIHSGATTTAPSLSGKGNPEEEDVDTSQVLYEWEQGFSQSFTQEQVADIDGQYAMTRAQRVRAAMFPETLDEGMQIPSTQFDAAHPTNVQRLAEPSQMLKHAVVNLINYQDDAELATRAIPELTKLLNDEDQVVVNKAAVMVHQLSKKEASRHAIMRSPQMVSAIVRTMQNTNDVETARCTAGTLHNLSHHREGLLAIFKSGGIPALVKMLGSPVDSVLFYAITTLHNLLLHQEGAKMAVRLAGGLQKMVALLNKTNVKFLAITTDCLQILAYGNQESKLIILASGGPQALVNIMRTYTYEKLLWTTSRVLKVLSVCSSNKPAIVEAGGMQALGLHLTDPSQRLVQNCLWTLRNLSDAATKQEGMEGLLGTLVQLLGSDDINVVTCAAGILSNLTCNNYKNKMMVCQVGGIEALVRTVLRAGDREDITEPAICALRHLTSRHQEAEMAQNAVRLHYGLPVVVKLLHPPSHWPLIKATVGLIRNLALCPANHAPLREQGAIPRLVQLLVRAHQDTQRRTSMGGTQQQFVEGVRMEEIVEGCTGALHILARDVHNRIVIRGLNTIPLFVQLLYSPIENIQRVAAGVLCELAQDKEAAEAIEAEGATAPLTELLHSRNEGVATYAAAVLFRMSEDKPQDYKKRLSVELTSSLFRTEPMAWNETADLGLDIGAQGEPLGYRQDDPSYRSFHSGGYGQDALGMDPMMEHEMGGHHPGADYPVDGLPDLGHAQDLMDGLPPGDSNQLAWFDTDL

[3] = molecular target: T2, beta-catenin/TCF4 engagement (Homo sapiens, UniProt P35222); assay: Nano-BRET target engagement assay (B-cat-Halo & TCF4-Luc in HEK293 cells); type: cell-based
T2 construct: expressed in transfected cells; host or cells: HEK293
T2 sequence (P35222 1-781): T1 sequence (P35222 1-781)

[4] = fluorescence polarization, read-out: beta-Catenin FP IC50
[5] = absolute IC50, read-out: NanoBRET Abs IC50

## COCCOCCC(=O)N1CCC[C@]12CC=CCCCC1(CCCC=CCCCCCC[C@@](C)(C(=O)N[C@@H](Cc3ccccc3Cl)C(=O)N[C@@H](Cc3csc4ccccc34)C(=O)N[C@@H](CCC(N)=O)C(N)=O)NC(=O)[C@H]([C@@H](C)O)NC(=O)[C@H](Cc3ccccc3)NC(=O)[C@H](C)NC(=O)[C@H](C)NC(=O)[C@H](CC(=O)O)NC(=O)[C@H](CC(=O)O)NC1=O)NC(=O)[C@H](CC(C)(C)C)NC(=O)[C@H](CC(=O)O)NC2=O (stereo partly drawn) [I-1255, mPEG2-PL3-Asp-Npg-B5-Asp-Asp-Ala-Ala-Phe-Thr-S8-2C1F-BztA-Gln-NH2]
[1]
  Solubility: 50 µM (≈ 98.9 µg/mL)
[2]; [4]
  pIC50: 7.49
[3]; [5]
  pIC50: < 4.70

## C[C@@H]1NC(=O)[C@H](C)NC(=O)[C@H](CC(=O)O)NC(=O)[C@H](CC(=O)O)NC(=O)C2(CCCC=CCCCCCC[C@@](C)(C(=O)N[C@@H](Cc3ccccc3Cl)C(=O)N[C@@H](Cc3csc4ccccc34)C(=O)N[C@@H](CCC(N)=O)C(N)=O)NC(=O)[C@H]([C@@H](C)O)NC(=O)[C@H](Cc3ccccc3)NC1=O)CCCC=CC[C@]1(CCCN1S(C)(=O)=O)C(=O)N[C@@H](CC(=O)O)C(=O)N[C@@H](CC(C)(C)C)C(=O)N2 (stereo partly drawn) [I-1260, MeSO2-PL3-Asp-Npg-B5-Asp-Asp-Ala-Ala-Phe-Thr-S8-2C1F-BztA-Gln-NH2]
[1]
  Solubility: 50 µM (≈ 96.3 µg/mL)
[2]; [4]
  pIC50: 7.64
[3]; [5]
  pIC50: 4.62

## COCCC(=O)N1CCC[C@]12CC=CCCCC1(CCCC=CCCCCCC[C@@](C)(C(=O)N[C@@H](Cc3ccccc3Cl)C(=O)N[C@@H](Cc3csc4ccccc34)C(=O)N[C@@H](CCC(N)=O)C(N)=O)NC(=O)[C@H]([C@@H](C)O)NC(=O)[C@H](Cc3ccccc3)NC(=O)[C@H](C)NC(=O)[C@H](C)NC(=O)[C@H](CC(=O)O)NC(=O)[C@H](CC(=O)O)NC1=O)NC(=O)[C@H](CC(C)(C)C)NC(=O)[C@H](CC(=O)O)NC2=O (stereo partly drawn) [I-1261, MeOPr-PL3-Asp-Npg-B5-Asp-Asp-Ala-Ala-Phe-Thr-S8-2C1F-BztA-Gln-NH2]
[1]
  Solubility: 50 µM (≈ 96.7 µg/mL)
[2]; [4]
  pIC50: 7.51
[3]; [5]
  pIC50: 4.70

## CC(=O)N1CCC[C@]12CC=CCCCC1(CCCC=CCCCOC(=O)N3CC[C@@](C(=O)N[C@@H](Cc4ccccc4)C(=O)N[C@@H](Cc4csc5ccccc45)C(=O)N[C@@H](CO)C(N)=O)(C3)NC(=O)[C@H]([C@@H](C)O)NC(=O)[C@H](Cc3ccccc3)NC(=O)[C@H](C)NC(=O)[C@H](C)NC(=O)[C@H]([C@@H](C)O)NC(=O)[C@H](CC(=O)O)NC1=O)NC(=O)[C@H](CC(C)(C)C)NC(=O)[C@H](CC(=O)O)NC2=O (stereo partly drawn) [I-1263, Ac-PL3-Asp-Npg-B5-Asp-Thr-Ala-Ala-Phe-Thr-PyrS2-Phe-BztA-Ser-NH2]
[1]; Solubility (uM)
  Solubility: 12 µM (≈ 22.1 µg/mL)
[2]; [4]
  pIC50: 7.37
[3]; [5]
  pIC50: 4.70

## CC(=O)N1CCC[C@]12CC=CCCCC1(CCCC=CCCCOC(=O)N3CC[C@@](C(=O)N[C@@H](Cc4ccccc4)C(=O)N[C@@H](Cc4csc5ccccc45)C(=O)N[C@@H](CO)C(N)=O)(C3)NC(=O)[C@H]([C@@H](C)O)NC(=O)[C@H](Cc3ccccc3)NC(=O)[C@H](C)NC(=O)[C@H](CC(C)C)NC(=O)[C@H]([C@@H](C)O)NC(=O)[C@H](CC(=O)O)NC1=O)NC(=O)[C@H](CC(C)(C)C)NC(=O)[C@H](CC(=O)O)NC2=O (stereo partly drawn) [I-1264, Ac-PL3-Asp-Npg-B5-Asp-Thr-Leu-Ala-Phe-Thr-PyrS2-Phe-BztA-Ser-NH2]
[1]
  Solubility: 10 µM (≈ 18.9 µg/mL)
[2]; beta-Catenin FP IC50, fluorescence polarization
  pIC50: 6.80
[3]; NanoBRET Abs IC50, absolute IC50
  pIC50: < 4.70

## CC(=O)N1CCC[C@]12CC=CCCCC1(CCCC=CCCCOC(=O)N3CC[C@@](C(=O)N[C@@H](Cc4ccccc4)C(=O)N[C@@H](Cc4csc5ccccc45)C(=O)N[C@@H](CO)C(N)=O)(C3)NC(=O)[C@H]([C@@H](C)O)NC(=O)[C@H](Cc3ccccc3)NC(=O)[C@H](CC(C)C)NC(=O)[C@H](C)NC(=O)[C@H]([C@@H](C)O)NC(=O)[C@H](CC(=O)O)NC1=O)NC(=O)[C@H](CC(C)(C)C)NC(=O)[C@H](CC(=O)O)NC2=O (stereo partly drawn) [I-1265, Ac-PL3-Asp-Npg-B5-Asp-Thr-Ala-Leu-Phe-Thr-PyrS2-Phe-BztA-Ser-NH2]
[1]
  Solubility: 10 µM (≈ 18.9 µg/mL)
[2]; [4]
  pIC50: 6.82
[3]; [5]
  pIC50: 4.64

## CC(=O)N1CCC[C@]12CC=CCCCC1(CCCC=CCCCOC(=O)N3CC[C@@](C(=O)N[C@@H](Cc4ccccc4)C(=O)N[C@@H](Cc4csc5ccccc45)C(=O)N[C@@H](CO)C(N)=O)(C3)NC(=O)[C@H]([C@@H](C)O)NC(=O)[C@H](Cc3cccc4ccccc34)NC(=O)[C@H](C)NC(=O)[C@H](C)NC(=O)[C@H]([C@@H](C)O)NC(=O)[C@H](CC(=O)O)NC1=O)NC(=O)[C@H](CC(C)(C)C)NC(=O)[C@H](CC(=O)O)NC2=O (stereo partly drawn) [I-1266, Ac-PL3-Asp-Npg-B5-Asp-Thr-Ala-Ala-1NapA-Thr-PyrS2-Phe-BztA-Ser-NH2]
[1]
  Solubility: 10 µM (≈ 18.9 µg/mL)
[2]; [4]
  pIC50: 6.12
[3]; [5]
  pIC50: < 4.70

## CC(=O)N1CCC[C@]12CC=CCCCC1(CCCC=CCCCOC(=O)N3CC[C@@](C(=O)N[C@@H](Cc4ccccc4)C(=O)N[C@@H](Cc4csc5ccccc45)C(=O)N[C@@H](CO)C(N)=O)(C3)NC(=O)[C@H]([C@@H](C)O)NC(=O)[C@H](Cc3ccc4ccccc4c3)NC(=O)[C@H](C)NC(=O)[C@H](C)NC(=O)[C@H]([C@@H](C)O)NC(=O)[C@H](CC(=O)O)NC1=O)NC(=O)[C@H](CC(C)(C)C)NC(=O)[C@H](CC(=O)O)NC2=O (stereo partly drawn) [I-1267, Ac-PL3-Asp-Npg-B5-Asp-Thr-Ala-Ala-2NapA-Thr-PyrS2-Phe-BztA-Ser-NH2]
[1]
  Solubility: 10 µM (≈ 18.9 µg/mL)
[2]; [4]
  pIC50: 6.74
[3]; [5]
  pIC50: 4.43

## CC(=O)N1CCC[C@]12CC=CCCCC1(CCCC=CCCCOC(=O)N3CC[C@@](C(=O)N[C@@H](Cc4cccc5ccccc45)C(=O)N[C@@H](Cc4csc5ccccc45)C(=O)N[C@@H](CO)C(N)=O)(C3)NC(=O)[C@H]([C@@H](C)O)NC(=O)[C@H](Cc3ccccc3)NC(=O)[C@H](C)NC(=O)[C@H](C)NC(=O)[C@H]([C@@H](C)O)NC(=O)[C@H](CC(=O)O)NC1=O)NC(=O)[C@H](CC(C)(C)C)NC(=O)[C@H](CC(=O)O)NC2=O (stereo partly drawn) [I-1269, Ac-PL3-Asp-Npg-B5-Asp-Thr-Ala-Ala-Phe-Thr-PyrS2-1NapA-BztA-Ser-NH2]
[1]
  Solubility: 10 µM (≈ 18.9 µg/mL)
[2]; [4]
  pIC50: 6.76
[3]; [5]
  pIC50: 4.75

## CC(=O)N1CCC[C@]12CC=CCCCC1(CCCC=CCCCOC(=O)N3CC[C@@](C(=O)N[C@@H](Cc4ccccc4Cl)C(=O)N[C@@H](Cc4csc5ccccc45)C(=O)N[C@H](C(N)=O)[C@@H](C)O)(C3)NC(=O)[C@H]([C@@H](C)O)NC(=O)[C@H](Cc3ccccc3)NC(=O)[C@H](C)NC(=O)[C@H](CCCCNC(C)C)NC(=O)[C@H](CC(=O)O)NC(=O)[C@H](CC(=O)O)NC1=O)NC(=O)[C@H](CC(C)(C)C)NC(=O)[C@H](CC(=O)O)NC2=O (stereo partly drawn) [I-1273, Ac-PL3-Asp-Npg-B5-Asp-Asp-iPrLys-Ala-Phe-Thr-PyrS2-2C1F-BztA-Thr-NH2]
[1]; Solubility (uM)
  Solubility: 32 µM (≈ 64.2 µg/mL)
[2]; [4]
  pIC50: 8.05
[3]; [5]
  pIC50: < 4.70

## CC(=O)N1CCC[C@]12CC=CCCCC1(CCCC=CCCCOC(=O)N3CC[C@@](C(=O)N[C@@H](Cc4ccccc4Cl)C(=O)N[C@@H](Cc4csc5ccccc45)C(=O)N[C@@H](CC(C)C)C(N)=O)(C3)NC(=O)[C@H]([C@@H](C)O)NC(=O)[C@H](Cc3ccccc3)NC(=O)[C@H](C)NC(=O)[C@H](CCCCNC(C)C)NC(=O)[C@H](CC(=O)O)NC(=O)[C@H](CC(=O)O)NC1=O)NC(=O)[C@H](CC(C)(C)C)NC(=O)[C@H](CC(=O)O)NC2=O (stereo partly drawn) [I-1274, Ac-PL3-Asp-Npg-B5-Asp-Asp-iPrLys-Ala-Phe-Thr-PyrS2-2C1F-BztA-Leu-NH2]
[1]
  Solubility: 10 µM (≈ 20.2 µg/mL)
[2]; [4]
  pIC50: 7.89
[3]; [5]
  pIC50: < 4.70

## CC(=O)N1CCC[C@]12CC=CCCCC1(CCCC=CCCCOC(=O)N3CC[C@@](C(=O)N[C@@H](Cc4ccccc4Cl)C(=O)N[C@@H](Cc4csc5ccccc45)C(=O)N[C@@H](CCC(N)=O)C(N)=O)(C3)NC(=O)[C@H](CCCCNC(C)C)NC(=O)[C@H](Cc3ccccc3)NC(=O)[C@H](C)NC(=O)[C@H](C)NC(=O)[C@H](CC(=O)O)NC(=O)[C@H](CC(=O)O)NC1=O)NC(=O)[C@H](CC(C)(C)C)NC(=O)[C@H](CC(=O)O)NC2=O (stereo partly drawn) [I-1278, Ac-PL3-Asp-Npg-B5-Asp-Asp-Ala-Ala-Phe-iPrLys-PyrS2-2C1F-BztA-Gln-NH2]
[1]; Solubility (uM)
  Solubility: 25 µM (≈ 50.1 µg/mL)
[2]; [4]
  pIC50: 8.00
[3]; [5]
  pIC50: 4.74
